Source: US8802661B2, “C-28 amides of modified C-3 betulinic acid derivatives as HIV maturation inhibitors” (priority 2010, dated 2014)

system: recombinant NL4-3 virus (Renilla luciferase in nef, Gag P373S); assay: HIV Cell Culture Assay (luciferase reporter virus in MT-2 cells); assay type: cell-based; details: NL43
In short: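 First, reporter virus was generated in 293T cells and titered on MT-2 cells. Next, MT-2 cells were infected in the presence of serial compound dilutions for 4-5 days. Finally, cells were lysed and luciferase activity was measured to quantify inhibition.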

| SMILES | EC50 |
| --- | --- |
| C=C(C)[C@@H]1CC[C@]2(C(=O)NCc3cccs3)CC[C@]3(C)[C@H](CC[C@@H]4[C@@]5(C)CC=C(c6ccc(C(=O)O)cc6)C(C)(C)[C@@H]5CC[C@]43C)[C@@H]12 [Example 42, 4-((1R,3aS,5aR,5bR,7aR,11aS,11bR,13aR,13bR)-5a,5b,8,8,11a-pentamethyl-1-(prop-1-en-2-yl)-3a-(thiophen-2-ylmethylcarbamoyl)-2,3,3a,4,5,5a,5b,6,7,7a,8,11,11a,11b,12,13,13a,13b-octadecahydro-1H-cyclopenta[a]chrysen-9-yl)benzoic acid] | 120 nM |
| C=C(C)[C@@H]1CC[C@]2(C(=O)NCCNc3ccc(C(=O)O)cc3)CC[C@]3(C)[C@H](CC[C@@H]4[C@@]5(C)CC=C(c6ccc(C(=O)O)cc6)C(C)(C)[C@@H]5CC[C@]43C)[C@@H]12 [Example 114, 4-(2-((1R,3aS,5aR,5bR,7aR,11aS,11bR,13aR,13bR)-9-(4-carboxyphenyl)-5a,5b,8,8,11a-pentamethyl-1-(prop-1-en-2-yl)-2,3,3a,4,5,5a,5b,6,7,7a,8,11,11a,11b,12,13,13a,13b-octadecahydro-1H-cyclopenta[a]chrysene-3a-carboxamido)ethylamino)benzoic acid] | 17.6 nM |

same assay, conditions: NL43, read-out: EC50 Group

| SMILES | EC50 |
| --- | --- |
| C=C(C)[C@@H]1CC[C@]2(C(=O)NCCN(CC(=O)O)Cc3ccccc3)CC[C@]3(C)[C@H](CC[C@@H]4[C@@]5(C)CC=C(c6ccc(C(=O)O)cc6)C(C)(C)[C@@H]5CC[C@]43C)[C@@H]12 [Example 107, 4-((1R,3aS,5aR,5bR,7aR,11aS,11bR,13aR,13bR)-3a-(2-(benzyl(carboxymethyl)amino)ethylcarbamoyl)-5a,5b,8,8,11a-pentamethyl-1-(prop-1-en-2-yl)-2,3,3a,4,5,5a,5b,6,7,7a,8,11,11a,11b,12,13,13a,13b-octadecahydro-1H-cyclopenta[a]chrysen-9-yl)benzoic acid] | < 100 nM |
| C=C(C)[C@@H]1CC[C@]2(C(=O)NCCN(C)C)CC[C@]3(C)[C@H](CC[C@@H]4[C@@]5(C)CC=C(c6ccc(C(=O)O)s6)C(C)(C)[C@@H]5CC[C@]43C)[C@@H]12 [Example 66, 5-((1R,3aS,5aR,5bR,7aR,11aS,11bR,13aR,13bR)-3a-(2-(dimethylamino)ethylcarbamoyl)-5a,5b,8,8,11a-pentamethyl-1-(prop-1-en-2-yl)-2,3,3a,4,5,5a,5b,6,7,7a,8,11,11a,11b,12,13,13a,13b-octadecahydro-1H-cyclopenta[a]chrysen-9-yl)thiophene-2-carboxylic acid] | < 100 nM |
| CC(C)[C@@H]1CC[C@]2(C(=O)NCCN(C)C)CC[C@]3(C)[C@H](CC[C@@H]4[C@@]5(C)CC=C(c6ccc(C(=O)O)cc6)C(C)(C)[C@@H]5CC[C@]43C)[C@@H]12 [Example 78, 4-((1S,3aS,5aR,5bR,7aR,11aS,11bR,13aR,13bR)-3a-(2-(dimethylamino)ethylcarbamoyl)-1-isopropyl-5a,5b,8,8,11a-pentamethyl-2,3,3a,4,5,5a,5b,6,7,7a,8,11,11a,11b,12,13,13a,13b-octadecahydro-1H-cyclopenta[a]chrysen-9-yl)benzoic acid] | < 100 nM |
| C=C(C)[C@@H]1CC[C@]2(C(=O)N[C@@H](Cc3ccccc3)C(=O)O)CC[C@]3(C)[C@H](CC[C@@H]4[C@@]5(C)CC=C(c6ccc(C(=O)O)cc6)C(C)(C)[C@@H]5CC[C@]43C)[C@@H]12 [Example 58, 4-((1R,3aS,5aR,5bR,7aR,11aS,11bR,13aR,13bR)-3a-((S)-1-carboxy-2-phenylethylcarbamoyl)-5a,5b,8,8,11a-pentamethyl-1-(prop-1-en-2-yl)-2,3,3a,4,5,5a,5b,6,7,7a,8,11,11a,11b,12,13,13a,13b-octadecahydro-1H-cyclopenta[a]chrysen-9-yl)benzoic acid] | < 100 nM |
| C=C(C)[C@@H]1CC[C@]2(C(=O)N[C@H](C(=O)O)C(C)C)CC[C@]3(C)[C@H](CC[C@@H]4[C@@]5(C)CC=C(c6ccc(C(=O)O)cc6)C(C)(C)[C@@H]5CC[C@]43C)[C@@H]12 [Example 61, 4-((1R,3aS,5aR,5bR,7aR,11aS,11bR,13aR,13bR)-3a-((S)-1-carboxy-2-methylpropylcarbamoyl)-5a,5b,8,8,11a-pentamethyl-1-(prop-1-en-2-yl)-2,3,3a,4,5,5a,5b,6,7,7a,8,11,11a,11b,12,13,13a,13b-octadecahydro-1H-cyclopenta[a]chrysen-9-yl)benzoic acid] | < 100 nM |
| C=C(C)[C@@H]1CC[C@]2(C(=O)Nc3ncc(C(=O)O)s3)CC[C@]3(C)[C@H](CC[C@@H]4[C@@]5(C)CC=C(c6ccc(C(=O)O)cc6)C(C)(C)[C@@H]5CC[C@]43C)[C@@H]12 [Example 50, 2-((1R,3aS,5aR,5bR,7aR,11aS,11bR,13aR,13bR)-9-(4-carboxyphenyl)-5a,5b,8,8,11a-pentamethyl-1-(prop-1-en-2-yl)-2,3,3a,4,5,5a,5b,6,7,7a,8,11,11a,11b,12,13,13a,13b-octadecahydro-1H-cyclopenta[a]chrysene-3a-carboxamido)thiazole-5-carboxylic acid] | < 100 nM |
| C=C(C)[C@@H]1CC[C@]2(C(=O)NCCN(CC(=O)O)c3ccccc3)CC[C@]3(C)[C@H](CC[C@@H]4[C@@]5(C)CC=C(c6ccc(C(=O)O)cc6)C(C)(C)[C@@H]5CC[C@]43C)[C@@H]12 [Example 111, 4-((1R,3aS,5aR,5bR,7aR,11aS,11bR,13aR,13bR)-3a-(2-((carboxymethyl)(phenyl)amino)ethylcarbamoyl)-5a,5b,8,8,11a-pentamethyl-1-(prop-1-en-2-yl)-2,3,3a,4,5,5a,5b,6,7,7a,8,11,11a,11b,12,13,13a,13b-octadecahydro-1H-cyclopenta[a]chrysen-9-yl)benzoic acid] | < 100 nM |
| C=C(C)[C@@H]1CC[C@]2(C(=O)NCCN3CCOCC3)CC[C@]3(C)[C@H](CC[C@@H]4[C@@]5(C)CC=C(c6ccc(C(=O)O)cc6)C(C)(C)[C@@H]5CC[C@]43C)[C@@H]12 [Example 12, 4-((1R,3aS,5aR,5bR,7aR,11aS,11bR,13aR,13bR)-5a,5b,8,8,11a-pentamethyl-3a-(2-morpholinoethylcarbamoyl)-1-(prop-1-en-2-yl)-2,3,3a,4,5,5a,5b,6,7,7a,8,11,11a,11b,12,13,13a,13b-octadecahydro-1H-cyclopenta[a]chrysen-9-yl)benzoic acid] | < 100 nM |
| C=C(C)[C@@H]1CC[C@]2(C(=O)NCCN(CC(=O)O)CC(=O)O)CC[C@]3(C)[C@H](CC[C@@H]4[C@@]5(C)CC=C(c6ccc(C(=O)O)cc6)C(C)(C)[C@@H]5CC[C@]43C)[C@@H]12 [Example 88, 2,2′-(2-((1R,3aS,5aR,5bR,7aR,11aS,11bR,13aR,13bR)-9-(4-carboxyphenyl)-5a,5b,8,8,11a-pentamethyl-1-(prop-1-en-2-yl)-2,3,3a,4,5,5a,5b,6,7,7a,8,11,11a,11b,12,13,13a,13b-octadecahydro-1H-cyclopenta[a]chrysene-3a-carboxamido)ethylazanediyl)diacetic acid] | > 100 nM |
| C=C(C)[C@@H]1CC[C@]2(C(=O)NCCN(CC)CCC(=O)O)CC[C@]3(C)[C@H](CC[C@@H]4[C@@]5(C)CC=C(c6ccc(C(=O)O)cc6)C(C)(C)[C@@H]5CC[C@]43C)[C@@H]12 [Example 89, 4-((1R,3aS,5aR,5bR,7aR,11aS,11bR,13aR,13bR)-3a-(2-((2-carboxyethyl)(ethyl)amino)ethylcarbamoyl)-5a,5b,8,8,11a-pentamethyl-1-(prop-1-en-2-yl)-2,3,3a,4,5,5a,5b,6,7,7a,8,11,11a,11b,12,13,13a,13b-octadecahydro-1H-cyclopenta[a]chrysen-9-yl)benzoic acid] | < 100 nM |
| C=C(C)[C@@H]1CC[C@]2(C(=O)NCCN)CC[C@]3(C)[C@H](CC[C@@H]4[C@@]5(C)CC=C(c6ccc(C(=O)O)cc6)C(C)(C)[C@@H]5CC[C@]43C)[C@@H]12 [Example 125, 4-((1R,3aS,5aR,5bR,7aR,11aS,11bR,13aR,13bR)-3a-(2-aminoethylcarbamoyl)-5a,5b,8,8,11a-pentamethyl-1-(prop-1-en-2-yl)-2,3,3a,4,5,5a,5b,6,7,7a,8,11,11a,11b,12,13,13a,13b-octadecahydro-1H-cyclopenta[a]chrysen-9-yl)benzoic acid] | < 100 nM |
| C=C(C)[C@@H]1CC[C@]2(C(=O)NCCCN(C)C)CC[C@]3(C)[C@H](CC[C@@H]4[C@@]5(C)CC=C(c6ccc(C(=O)O)cc6)C(C)(C)[C@@H]5CC[C@]43C)[C@@H]12 [Example 27, 4-((1R,3aS,5aR,5bR,7aR,11aS,11bR,13aR,13bR)-3a-(3-(dimethylamino)propylcarbamoyl)-5a,5b,8,8,11a-pentamethyl-1-(prop-1-en-2-yl)-2,3,3a,4,5,5a,5b,6,7,7a,8,11,11a,11b,12,13,13a,13b-octadecahydro-1H-cyclopenta[a]chrysen-9-yl)benzoic acid] | < 100 nM |
| C=C(C)[C@@H]1CC[C@]2(C(=O)NCC(O)CO)CC[C@]3(C)[C@H](CC[C@@H]4[C@@]5(C)CC=C(c6ccc(C(=O)O)cc6)C(C)(C)[C@@H]5CC[C@]43C)[C@@H]12 (stereo partly drawn) [Example 71, 4-((1R,3aS,5aR,5bR,7aR,11aS,11bR,13aR,13bR)-3a-(2,3-dihydroxypropylcarbamoyl)-5a,5b,8,8,11a-pentamethyl-1-(prop-1-en-2-yl)-2,3,3a,4,5,5a,5b,6,7,7a,8,11,11a,11b,12,13,13a,13b-octadecahydro-1H-cyclopenta[a]chrysen-9-yl)benzoic acid] | < 100 nM |
| C=C(C)[C@@H]1CC[C@]2(C(=O)NCCNc3ccccc3)CC[C@]3(C)[C@H](CC[C@@H]4[C@@]5(C)CC=C(c6ccc(C(=O)O)cc6)C(C)(C)[C@@H]5CC[C@]43C)[C@@H]12 [Example 110, 4-((1R,3aS,5aR,5bR,7aR,11aS,11bR,13aR,13bR)-5a,5b,8,8,11a-pentamethyl-3a-(2-(phenylamino)ethylcarbamoyl)-1-(prop-1-en-2-yl)-2,3,3a,4,5,5a,5b,6,7,7a,8,11,11a,11b,12,13,13a,13b-octadecahydro-1H-cyclopenta[a]chrysen-9-yl)benzoic acid] | < 100 nM |
